# Experimental data published in PubChem BioAssay (NCI).
#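 Assay format: 96-well plates, 48-hour exposure. GI50 is the concentration that inhibits growth by half. Definition used: TGI = concentration required for complete inhibition of growth.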
# What was measured:
# Assay in all cases: inhibition of tumour cell growth, NCI panel, 48 h
# NCI-H23 lung = tested on: NCI-H23 lung
# SK-MEL-28 melanoma = tested on: SK-MEL-28 melanoma
# HCT-116 colon = tested on: HCT-116 colon
# SN12C renal = tested on: SN12C renal
# M14 melanoma = tested on: M14 melanoma
# SNB-19 CNS = tested on: SNB-19 CNS
# K-562 leukemia = tested on: K-562 leukemia
# UACC-257 melanoma = tested on: UACC-257 melanoma
# UO-31 renal = tested on: UO-31 renal
# HS 578T breast = tested on: HS 578T breast
Structure (SMILES),TGI (NCI-H23 lung) [µM],TGI (SK-MEL-28 melanoma) [µM],TGI (HCT-116 colon) [µM],TGI (SN12C renal) [µM],TGI (M14 melanoma) [µM],TGI (SNB-19 CNS) [µM],TGI (K-562 leukemia) [µM],TGI (UACC-257 melanoma) [µM],TGI (UO-31 renal) [µM],GI50 (SK-MEL-28 melanoma) [nM],GI50 (HCT-116 colon) [µM],GI50 (UACC-257 melanoma) [µM],GI50 (UO-31 renal) [nM],GI50 (SN12C renal) [µM],GI50 (SNB-19 CNS) [µM],GI50 (HS 578T breast) [nM],TGI (HS 578T breast) [µM],GI50 (NCI-H23 lung) [µM],GI50 (K-562 leukemia) [µM]
COP1(=O)CC2C(Cl)(Cl)C2(C)C1 (stereo not drawn),> 100,> 100,> 100,> 100,> 100,> 100,> 100,–,–,–,–,–,–,–,–,–,–,–,–
CCOC(=O)C(C)(C)Oc1ccc2c(=O)cc(-c3ccc(Cl)cc3)oc2c1,> 100,> 100,> 100,> 100,> 100,> 100,> 100,> 100,> 100,–,–,–,–,–,–,–,–,–,–
CC1(C)C(=O)N(c2ccccc2)C(=O)N1c1nc2ccccc2[nH]1,> 100,> 100,> 100,> 100,> 100,> 100,> 100,> 100,> 100,–,–,–,–,–,–,–,–,–,–
O=C1C=C(c2c(O)ccc3ccccc23)c2ccccc2C1=O,4.92,> 50,8.06,12.2,16.8,22.4,23.4,6.49,6.52,–,–,–,–,–,–,–,–,–,–
CCCCC#COP(=O)(OCC)OCC,> 100,–,> 100,> 100,> 100,> 100,–,> 100,> 100,–,–,–,–,–,–,–,–,–,–
CC1CC(c2ccccc2)=Nc2ccccc2S1(=O)=O (stereo not drawn),30.8,29.8,3.13,34.3,40.9,28.4,41.9,23.8,29,–,–,–,–,–,–,–,–,–,–
C=CCCCCCCCCCCCC1CCC(CC)N1 (stereo not drawn),28.6,29.6,20.1,24.3,24.6,36.3,28.1,28,23.8,–,–,–,–,–,–,–,–,–,–
CC1(C)C=CC[C@]2(C)[C@H]3CC[C@@H]4[C@H]5[C@H](C(=O)/C=C/c6cccnc6)CC[C@]5(CO)CC[C@@]4(C)[C@]3(C)CC[C@@H]12,–,2.98,2.32,2.45,–,2.84,–,2.91,2.45,1540,1.05,1.39,1210,1.07,1.49,1510,3.89,–,–
COc1ccc(NC(=O)C2C(=O)N(c3ccc(OC)cc3)C(=O)/C2=N/O)cc1 (stereo not drawn),> 88.1,> 96.8,38.3,71.9,> 86.6,> 70.5,> 100,> 80.5,47,–,–,–,–,–,–,–,–,–,–
CC(=O)O/N=C/c1ncccc1CO,> 100,> 100,> 100,> 100,> 100,> 100,> 100,> 100,> 100,–,–,–,–,–,–,–,–,–,–
CCN(CC)CCC1CC/C(=C\c2ccc(OC)cc2)C1=O (stereo not drawn),–,> 100,> 100,> 100,> 100,> 100,> 100,77.6,> 100,–,–,–,–,–,–,–,–,–,–
CCC(=O)c1cn(C)c(=O)c2ccccc12,> 100,> 100,–,> 100,> 100,> 100,> 100,> 100,> 100,–,–,–,–,–,–,–,–,–,–
CC(=O)NC(CCCCNC(=O)OCc1ccccc1)C(=O)NCc1ccccc1 (stereo not drawn),> 100,> 100,> 100,> 100,> 100,> 100,> 100,> 100,> 100,–,–,–,–,–,–,–,–,–,–
C=CCc1cc2cccc(OC)c2oc1=O,> 100,> 100,> 100,> 100,> 100,> 100,> 100,> 100,69.2,–,–,–,–,–,–,–,–,–,–
COc1cc(-c2cc(=O)c3cc4c(cc3[nH]2)OCO4)cc(OC)c1OC,> 100,> 100,> 100,> 100,> 100,> 100,> 100,–,> 100,–,73.7,–,–,–,–,–,–,–,–
Cc1cc2c(CC(=O)O)[nH]nc2c(C(=O)O)c1C,> 100,> 100,> 100,> 100,–,> 100,–,> 100,> 100,–,–,–,–,–,–,–,–,–,–
Cc1cc(/C=C2\SC(=Nc3ccccc3)N(C3CCCC3)C2=O)c(C)n1-c1ccc(Cl)cc1,> 100,> 100,> 100,> 100,–,> 100,> 100,> 100,> 100,> 100000,> 100,> 100,> 100000,> 100,> 100,> 100000,> 100,> 100,> 100
COc1ccc(-c2c(C3=NCCN3)nnn2-c2ccccc2)cc1,> 100,> 100,> 100,> 100,> 100,> 100,> 100,> 100,> 100,–,–,–,–,–,–,–,–,–,–
c1ccc2c(c1)[I+]c1ccccc1-2,> 50,> 50,> 50,> 50,–,> 50,> 50,> 50,> 50,> 50000,38.4,> 50,> 50000,> 50,> 50,> 50000,> 50,22.9,28.2
C=CCn1c(C)nc2cc(Nc3nc(Nc4ccc5nc(C)n(CC=C)c5c4)c4ccccc4n3)ccc21,4.57,3.16,–,–,–,–,–,–,2.74,1410,–,–,1400,–,–,2020,5.22,1.88,–
Cc1nc(N)sc1C(=O)/C=C/c1ccc(/C=C/C(=O)c2sc(NC(=O)CCCCCCCCC(=O)Nc3nc(C)c(C(=O)/C=C/c4ccc(/C=C/C(=O)c5sc(N)nc5C)cc4)s3)nc2C)cc1,> 100,> 100,> 100,> 100,> 100,> 100,> 100,> 100,> 100,–,–,–,–,–,–,–,–,–,–
